Data from PMC9428149, “Tackling recalcitrant Pseudomonas aeruginosa infections in critical illness via anti-virulence monotherapy” (Nature Communications, 2022).

What was measured:
[1] = system: pqsA promoter (PA14 PpqsA-GFPASV); assay: pqsA-GFP reporter expression; type: cell-based, Pseudomonas aeruginosa; conditions: PA14 PpqsA-GFPASV; 50µM per b210 (method b76 says 10 µM)
Method: The expression levels of pqsA, which is representative of the pqsABCDE operon transcription, were monitored in the presence of the MvfR inhibitors using PA14 cells containing the PpqsA-GFPASV, a reporter construct of the pqsA promoter fused to a short half-life GFP gene in, such that quantitative quenching of fluorescence corresponds to pqsA promoter repression[22],[32],[48]. […] GFP fluorescence levels were measured at λex = 485 nm/λem = 535 nm after 10 seconds of shaking every 15 min up to 12 h. The IC50 of PpqsA-GFP expression levels was performed as above using the same 13 different concentrations (0.0122–50 μM) for each of the 13 compounds tested.

[2] = system: pyocyanin production in PA14; assay: Pyocyanin production assay; conditions: PA14; 50µM of each inhibitor (method says 10 μM); vs vehicle
[3] = system: MvfR-regulated small molecules in PA14; assay: Production of HAQs, 2-AA, DHQ and AA in PA14 cultures (LC-MS); conditions: PA14, 50µM inhibitor; for % Production AA: anthranilic acid, precursor control

| Compound | % Production pqsA-GFP [1] [%] | % Production Pyocyanin [2] [%] | % Production 2-AA [3] [%] | % Production HHQ [3] [%] | % Production HQNO [3] [%] | % Production PQS [3] [%] | % Production DHQ [3] [%] | % Production AA [3] [%] |
| --- | --- | --- | --- | --- | --- | --- | --- | --- |
| Cc1cc(F)ccc1NCC(=O)Nc1cccc(C#N)c1 [D13] | 90 | 100 | – | – | – | – | – | – |
| CC(C)c1ccc(NCC(=O)Nc2ccc(C#N)cc2)cc1 [D33] | 53 | 59 | – | – | – | – | – | – |
| O=C(CC(=O)Nc1ccc(C(F)(F)F)cc1)Nc1ccc(Oc2ccccc2)cc1 [D98] | 29 | 42 | – | – | – | – | – | – |
| Cc1cc(F)ccc1NCC(=O)Nc1cccc(C#N)c1 [G1] | 84 | 103 | 122 | 100 | 101 | 109 | – | – |
| N#Cc1ccc(NC(=O)CC(=O)Nc2ccc(Oc3ccccc3)cc2)c(N)c1 [D62] | 6 | 7 | 10 | 2 | 13 | 9 | 16 | 107 |
| Cc1cc(F)ccc1NC(=O)Cc1ccc(C#N)cc1 [D40] | 96 | 115 | 113 | 102 | 109 | 100 | 85 | 81 |
| O=C(CC(=O)Nc1ccc([N+](=O)[O-])cc1)Nc1ccc(Oc2ccccc2)cc1 [D58] | 9 | 6 | 22 | 20 | 23 | 19 | 45 | 101 |
| N#Cc1ccc(NC(=O)CC(=O)Nc2ccc(C(=O)C(F)(F)F)cc2)cc1 [D50] | 102 | 84 | 140 | 107 | 103 | 104 | 89 | 176 |
| CC(=O)Nc1ccc(NC(=O)CC(=O)Nc2ccc(C#N)cc2)cc1 [D53] | 85 | 103 | 93 | 75 | 85 | 88 | 98 | 56 |
| N#Cc1ccc(NC(=O)CC(=O)Nc2ccc(C#N)cn2)cc1 [D78] | – | 14 | – | – | – | – | – | – |
| O=C(CC(=O)Nc1ccc(Oc2ccccc2)cc1)Nc1ccc(Br)cc1 [D64] | 61 | 48 | 78 | 88 | 88 | 100 | 85 | 50 |
| O=C(CC(=O)Nc1ccc([N+](=O)[O-])cc1O)Nc1ccc(Oc2ccccc2)cc1 [D61] | 7 | 6 | 12 | 1 | 8 | 6 | 8 | 112 |
| N#Cc1ccc(NC(=O)CC(=O)Nc2ccc(N)cc2)cc1 [D52] | 90 | 87 | 101 | 92 | 92 | 86 | 103 | 115 |
| Cc1cc(NC(=O)CNc2ccc(F)cc2C)ccc1Br [D31] | 47 | 69 | – | – | – | – | – | – |
| COc1cccc(NC(=O)CNc2ccc(F)cc2C)c1 [D32] | 94 | 92 | – | – | – | – | – | – |
| N#Cc1ccc(NC(=O)CCNc2ccc(F)cc2)cc1 [D34] | 80 | 91 | 113 | 97 | 96 | 97 | 100 | 101 |
| Cc1cc(F)ccc1NC(=O)CC(=O)Nc1ccc(C#N)cc1 [D48] | 44 | 60 | 77 | 96 | 94 | 90 | 91 | 59 |
| Cc1ccccc1NCC(=O)Nc1ccc(C#N)cc1 [G9] | 93 | 94 | 64 | 76 | 92 | 124 | 59 | – |
| N#Cc1ccc(NC(=O)C=CC(=O)Nc2ccc(F)cc2)cc1 [D86] | – | 88 | – | – | – | – | – | – |
| N#Cc1ccc(NC(=O)CC(=O)Nc2cccc(F)c2)cc1 [D72] | – | 30 | – | – | – | – | – | – |
| N#Cc1ccc(NC(=O)CC(O)Cc2ccc(F)cc2)cc1 (stereo not drawn) [D89] | – | 95 | – | – | – | – | – | – |
| N#Cc1ccc(NC(=O)C(F)(F)C(=O)Nc2ccc(C#N)cc2)cc1 [D97] | 95 | 94 | – | – | – | – | – | – |
| Cc1cc(F)ccc1OCC(=O)Nc1ccc(C#N)cc1 [G5] | 98 | 98 | 63 | 114 | 111 | 114 | 83 | 54 |
| CCc1ccccc1NCC(=O)Nc1ccc(C#N)cc1 [D3] | 92 | 97 | – | – | – | – | – | – |
| N#Cc1ccc(/C=C/C(=O)Nc2ccc(C#N)cc2)cc1 [D83] | – | 114 | – | – | – | – | – | – |
| N#Cc1ccc(NC(=O)CC(=O)Nc2cccc(C#N)c2)cc1 [D75] | – | 49 | – | – | – | – | – | – |
| Cc1cc(F)ccc1NCC(=O)Nc1ccc(C(F)(F)F)cc1 [G2] | 46 | 61 | 68 | 110 | 86 | 93 | 81 | – |

| Compound | % Production pqsA-GFP [1] [%] | % Production Pyocyanin [2] [%] | % Production 2-AA [3] [%] | % Production HHQ [3] [%] | % Production HQNO [3] [%] | % Production PQS [3] [%] | % Production DHQ [3] [%] | % Production AA [3] [%] |
| --- | --- | --- | --- | --- | --- | --- | --- | --- |
| N#Cc1ccc(NC(=O)CC(=O)c2ccc(F)cc2)cc1 [D76] | – | 77 | – | – | – | – | – | – |
| Nc1cc([N+](=O)[O-])ccc1NC(=O)CC(=O)Nc1ccc(Oc2ccccc2)cc1 [D60] | – | 6 | – | – | – | – | – | – |
| Cc1cc(F)ccc1NCC(=O)Nc1ccc(Br)cc1C [D7] | 70 | 89 | – | – | – | – | – | – |
| N#Cc1ccc(NC(=O)CNc2ccc(Cl)cc2)cc1 [D16] | 18 | 43 | – | – | – | – | – | – |
| CC(F)(C(=O)Nc1ccc(C#N)cc1)C(=O)Nc1ccc(C#N)cc1 [D94] | 85 | 52 | – | – | – | – | – | – |
| N#Cc1ccc(NC(=O)CC(=O)Nc2ccc(Oc3ccccc3)cc2)c(N)c1 [D92] | 1 | 4 | – | – | – | – | – | – |
| Cc1cc(F)ccc1NCC(=O)Nc1cccc(Cl)c1 [D22] | 71 | 96 | – | – | – | – | – | – |
| N#Cc1ccc(NC(=O)CNc2ccccc2F)cc1 [D25] | 84 | 97 | – | – | – | – | – | – |
| Cc1cc(F)ccc1NCC(=O)Nc1ccc(N2CCOCC2)cc1 [D5] | 100 | 102 | – | – | – | – | – | – |
| CC(=O)c1ccccc1NC(=O)CNc1ccc(F)cc1C [D30] | 94 | 91 | – | – | – | – | – | – |
| N#Cc1ccc(NC(=O)C(F)C(=O)Nc2ccc(C#N)cc2)cc1 [D96] | 42 | 34 | – | – | – | – | – | – |
| Cc1ccc(NC(=O)CNc2ccc(F)cc2C)c(C)c1 [D21] | 87 | 113 | – | – | – | – | – | – |
| N#Cc1ccc(NC(=O)CC(=O)Cc2ccc(F)cc2)cc1 [D84] | – | 102 | – | – | – | – | – | – |
| Cc1ccc(F)cc1NCC(=O)Nc1ccc(C#N)cc1 [D18] | 28 | 69 | – | – | – | – | – | – |
| Cc1cc(F)ccc1NCC(=O)Nc1ccc(C(=O)N(C)C)cc1 [D19] | 100 | 109 | – | – | – | – | – | – |
| Cc1ccc(NC(=O)CNc2ccc(F)cc2C)c(Br)c1 [D12] | 92 | 108 | – | – | – | – | – | – |
| Cc1cc(F)ccc1NCC(=O)Nc1cc(F)ccc1F [D10] | 89 | 90 | – | – | – | – | – | – |
| N#Cc1ccc(NC(=O)CNc2cccc(F)c2)cc1 [D6] | 68 | 91 | – | – | – | – | – | – |
| Cc1cc(F)ccc1NCC(=O)Nc1cccc([N+](=O)[O-])c1 [D14] | 77 | 85 | – | – | – | – | – | – |
| COc1ccc(NC(=O)CNc2ccc(F)cc2C)cc1 [D15] | 87 | 102 | – | – | – | – | – | – |
| Cc1cc(F)ccc1NCC(=O)Nc1ccc(N2CCCC2=O)cc1 [D9] | 105 | 107 | – | – | – | – | – | – |
| N#Cc1ccc(NCC(=O)Nc2ccc(F)cc2)cc1 [D24] | 26 | 59 | – | – | – | – | – | – |
| Cc1cc(F)ccc1NCC(=O)Nc1ccccc1Br [D2] | 96 | 101 | – | – | – | – | – | – |
| N#Cc1ccc(NC(=O)CC(Nc2ccc(Oc3ccccc3)cc2)C(F)(F)F)cc1 (stereo not drawn) [D93] | 88 | 91 | – | – | – | – | – | – |
| N#Cc1ccc(NC(=O)CC(=O)Nc2ccc(C#N)nc2)cn1 [D91] | 39 | 43 | – | – | – | – | – | – |
| Cc1ccc(NCC(=O)Nc2ccc(C#N)cc2)cc1F [D28] | 42 | 60 | – | – | – | – | – | – |
